# According to patent US12486280B2, “CDK inhibitors and uses thereof” (California Institute of Technology, priority 2018, dated 2025):
# Read-outs that look alike come from different tables or passages of the source.
# What was measured:
# CDK4 = CDK4 (Homo sapiens (Human), UniProt P11802); assay: Cdk4 and 6 Enzymatic Inhibition Assay (radiometric 33PanQinase, Ki determination); assay type: biochemical
# Procedure: (§1) 10 distinct concentrations were prepared, with a dilution endpoint of 6×10^−9 M in 100% DMSO. 100% DMSO was used as a control. 10 μL from each of the serial dilutions were aliquoted into separate wells of a 96-well plate and 90 μL of water were added to each of those wells. The plate was shaken thoroughly, and 5 μL from each of the plate's wells were transferred into wells of the assay plate. The final volume of wells in the assay plate was 50 μL. A11 compounds were tested at 10 assay concentrations in the range from 2×10^−6 M to 6×10^−11 M. The final DMSO concentration in the wells of the assay plate was 1% in all cases.
# (§2) A radiometric protein kinase assay (33PanQinase® Activity Assay) was used for measuring the kinase activity of six protein kinases. A11 kinase assays were performed in 96-well FlashPlates™ from PerkinElmer (Boston, MA, USA). The assay for all protein kinases contained 70 mM HEPES-NaOH pH 7.5, 3 mM MgCl2, 3 mM MnCl2, 3 μM Na-orthovanadate, 1.2 mM DTT, 50 μg/mL PEG20000, ATP [γ-33P]-ATP (approx. 9×1005 cpm per well), protein kinase and substrate. The reaction cocktails were incubated at 30° C. for 60 minutes. The reaction was stopped with 50 μL of 2% (v/v) H3PO4, and plates were aspirated and washed two times with 200 μL 0.9% (w/v) NaCl. Incorporation of ^33Pi was determined with a microplate scintillation counter (Microbeta, Wallac).
# CDK6 = CDK6 (Homo sapiens (Human), UniProt Q00534); assay: as above; assay type: biochemical
# Procedure: as §1, §2
# [1] = test system: drug-sensitive cell lines of Table 2 (EFM-19, MDA-MB-453, T-47D, ZR-75-1, NCI-H441, OVTOKO, NCI-H1838); assay: Cell Line Growth Retardation Assay, sensitive cohort; assay type: cell-based, human; conditions: for IC50: geometric mean over sensitive cohort, 6 days growth, read-out: AvgSensIC50; for Ther Window: average IC50 drug-resistant group divided by average IC50 drug-sensitive group
# Procedure: (§3) Cells were seeded at densities of 1,000-5,000 cells per well in 48-well tissue culture plates. After a 24 hours rest period, cells were treated with compound at 10 μM, 2 μM, 0.4 μM, 0.08 μM, 0.016 μM, and 0.0032 μM. A group of cells were treated with the vehicle in which the compound was prepared and served as a control. The cells were grown in the presence of compounds for 6 days and were counted on day 0 and day 6. A11 cell counting was performed using a Synentec Cellavista plate imager. […] Growth inhibition was calculated as a ratio of cell population doublings in the presence of compound versus the absence of compound. […] IC50 values for each compound (see Table 3; reported in μM) were calculated by fitting curves to data points from each dose-response assay using the Proc NLIN function in SAS for Windows version 9.2 (SAS Institute, Inc.).
# (§4) These sensitive and resistant cohorts were interrogated for response to each compound, and IC50s were calculated for each cell line using the same technique described above. Average IC50s for the sensitive and resistant cohorts were calculated as geometric means of the group. “Therapeutic Window” for each compound was calculated by dividing the average IC50 for the drug-resistant group by the average IC50 for the drug-sensitive group.
# [2] = test system: drug-resistant cell lines of Table 2 (NCI-H1437, OV207, HCC1806, NCI-H2172); assay: Cell Line Growth Retardation Assay, resistant cohort; assay type: cell-based, human; conditions: geometric mean over resistant cohort, 6 days growth, read-out: AvgResIC50
# Procedure: as §3, §4
# Sequence of CDK6 (Q00534 whole entry): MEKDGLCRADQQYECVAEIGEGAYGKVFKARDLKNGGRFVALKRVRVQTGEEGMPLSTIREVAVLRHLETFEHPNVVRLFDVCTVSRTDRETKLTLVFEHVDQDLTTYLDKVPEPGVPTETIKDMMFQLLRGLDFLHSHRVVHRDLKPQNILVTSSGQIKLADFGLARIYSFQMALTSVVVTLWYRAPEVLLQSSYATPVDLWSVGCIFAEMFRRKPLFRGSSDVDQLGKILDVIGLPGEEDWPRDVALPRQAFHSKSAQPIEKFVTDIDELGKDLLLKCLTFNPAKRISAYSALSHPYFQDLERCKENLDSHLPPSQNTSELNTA
# Sequence of CDK6 (P24385 whole entry partner): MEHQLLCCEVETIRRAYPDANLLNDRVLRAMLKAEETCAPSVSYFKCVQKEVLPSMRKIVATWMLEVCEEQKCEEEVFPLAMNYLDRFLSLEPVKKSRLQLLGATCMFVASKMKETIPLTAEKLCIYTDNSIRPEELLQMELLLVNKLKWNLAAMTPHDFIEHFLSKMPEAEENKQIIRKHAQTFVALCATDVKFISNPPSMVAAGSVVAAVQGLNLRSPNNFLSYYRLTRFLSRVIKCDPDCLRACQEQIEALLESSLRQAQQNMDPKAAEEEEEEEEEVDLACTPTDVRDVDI
# Sequence of CDK4 (P11802 whole entry): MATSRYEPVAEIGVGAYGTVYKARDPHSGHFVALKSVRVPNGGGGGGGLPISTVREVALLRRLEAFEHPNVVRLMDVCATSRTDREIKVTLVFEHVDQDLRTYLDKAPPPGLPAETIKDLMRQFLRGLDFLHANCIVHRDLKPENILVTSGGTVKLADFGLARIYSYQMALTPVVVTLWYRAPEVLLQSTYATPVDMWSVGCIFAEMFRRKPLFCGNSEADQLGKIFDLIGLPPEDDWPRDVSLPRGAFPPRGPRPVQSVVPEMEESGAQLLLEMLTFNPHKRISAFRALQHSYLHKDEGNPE
# Sequence of CDK4 (P24385 whole entry partner): as the sequence (P24385 whole entry partner) above
Ki (CDK4),Ki (CDK6),"IC50 ([1]; Homo sapiens, […])","IC50 ([2]; Homo sapiens, […])",IC50 [1],IC50 [2],SMILES,Ther Window [1]
3.55 nM,15.4 nM,350 nM,1000 nM,–,–,"Cc1nc2c(F)cc(-c3nc(Nc4ccc(CN5CCO[C@@](C)(C[C@@H](C)O)C5)cn4)ncc3F)cc2n1C(C)C (single isomer, unassigned) [Compound A52]",2.82
2.49 nM,11.9 nM,210 nM,1000 nM,–,–,"Cc1nc2c(F)cc(-c3nc(Nc4ccc(CN5CCO[C@@](C)(C[C@H](C)O)C5)cn4)ncc3F)cc2n1C(C)C (single isomer, unassigned) [Compound A53]",4.85
1.16 nM,5.09 nM,160 nM,960 nM,–,–,Cc1nc2c(F)cc(-c3nc(Nc4ccc(CN5CCOC(C)(CCN(C)C)C5)cn4)ncc3F)cc2n1C(C)C (centres unmarked) [Compound A4],5.80
0.04 nM,0.16 nM,–,–,40 nM,130 nM,Cc1nc2c(F)cc(-c3nc(Nc4ccc(CN5CCOC(C)(CC(C)N(C)C)C5)cn4)ncc3F)cc2n1C(C)C (centres unmarked) [Compound A24],3.02
0.8 nM,3.47 nM,–,–,120 nM,790 nM,Cc1nc2c(F)cc(-c3nc(Nc4ccc(CN5CCOC(C)(CC(C)N(C)C)C5)cn4)ncc3F)cc2n1C(C)C (centres unmarked) [Compound A25],6.52
–,–,200 nM,1000 nM,–,–,"Cc1nc2c(F)cc(-c3nc(Nc4ccc(CN5CCO[C@@]6(CCNC6)C5)cn4)ncc3F)cc2n1C(C)C [Compound A34, (R)—N-(5-((6-oxa-2,9-diazaspiro[4.5]decan-9-yl)methyl)pyridin-2-yl)-5-fluoro-4-(4-fluoro-1-isopropyl-2-methyl-1H-benzo[d]imidazol-6-yl)pyrimidin-2-amine]",5.02
–,–,190 nM,1000 nM,–,–,Cc1nc2c(F)cc(-c3nc(Nc4ccc(CN5CCO[C@]6(CCNC6)C5)cn4)ncc3F)cc2n1C(C)C [Compound A35],5.36
2.27 nM,7.99 nM,450 nM,980 nM,–,–,Cc1nc2c(F)cc(-c3nc(Nc4ccc(CN5CCOC6(CCOC6)C5)cn4)ncc3F)cc2n1C(C)C (centres unmarked) [Compound A40],2.18
11.3 nM,73.9 nM,–,–,–,–,"Cc1nc2c(F)cc(-c3nc(Nc4ccc(CN5CCO[C@@]6(CCN(C(=O)OC(C)(C)C)C6)C5)cn4)ncc3F)cc2n1C(C)C [Compound A41, tert-butyl (S)-9-((6-((5-fluoro-4-(4-fluoro-1-isopropyl-2-methyl-1H-benzo[d]imidazol-6-yl)pyrimidin-2-yl)amino)pyridin-3-yl)methyl)-6-oxa-2,9-diazaspiro[4.5]decane-2-carboxylate]",–
6.47 nM,34.9 nM,–,–,–,–,Cc1nc2c(F)cc(-c3nc(Nc4ccc(CN5CCO[C@]6(CCN(C(=O)OC(C)(C)C)C6)C5)cn4)ncc3F)cc2n1C(C)C [Compound A42],–
3.43 nM,1.43 nM,780 nM,1000 nM,–,–,"C=CC[C@@]1(C)CN(Cc2ccc(Nc3ncc(F)c(-c4cc(F)c5nc(C)n(C(C)C)c5c4)n3)nc2)CCO1 [Compound A45, (S)—N-(5-((2-allyl-2-methylmorpholino)methyl)pyridin-2-yl)-5-fluoro-4-(4-fluoro-1-isopropyl-2-methyl-1H-benzo[d]imidazol-6-yl)pyrimidin-2-amine]",1.29
5.08 nM,1.95 nM,790 nM,1000 nM,–,–,CCCC1(C)CN(Cc2ccc(Nc3ncc(F)c(-c4cc(F)c5nc(C)n(C(C)C)c5c4)n3)nc2)CCO1 (centres unmarked) [Compound A46],1.26

SMILES,Ki (CDK4),Ki (CDK6),"IC50 ([1]; Homo sapiens, […])","IC50 ([2]; Homo sapiens, […])",IC50 [1],IC50 [2],Ther Window [1]
"CCN1CCN(Cc2ccc(Nc3ncc(F)c(-c4cc(F)c5nc(C)n(C(C)C)c5c4)n3)nc2)CC1 [Abemaciclib FB, Abemaciclib, reference compound]",–,–,–,–,100 nM,670 nM,6.73
